Reference: patent publication US20250195513A1, “DEGRADATION OF IRAK4 BY CONJUGATION OF IRAK4 INHIBITORS WITH E3 LIGASE LIGAND AND METHODS OF USE” (BeiGene, Ltd., priority 2022, published 2025)

Columns and labels:
[1] = molecular target: T1, IRAK4 (Homo sapiens, UniProt Q9NWZ3); assay: IRAK4 Degradation Assay (Karpas299, HTRF/TR-FRET); assay type: cell-based; details: Karpas-299 cells, 24 h treatment; for Dmax: maximum percentage of degradation, read-out: IRAK4 in Karpas-299 (24 h) Dmax (%); for DC50: read-out: IRAK4 in Karpas-299 (24 h) DC50
T1 construct: endogenous in cells; host or cells: Karpas299
T1 sequence (Q9NWZ3 1-460): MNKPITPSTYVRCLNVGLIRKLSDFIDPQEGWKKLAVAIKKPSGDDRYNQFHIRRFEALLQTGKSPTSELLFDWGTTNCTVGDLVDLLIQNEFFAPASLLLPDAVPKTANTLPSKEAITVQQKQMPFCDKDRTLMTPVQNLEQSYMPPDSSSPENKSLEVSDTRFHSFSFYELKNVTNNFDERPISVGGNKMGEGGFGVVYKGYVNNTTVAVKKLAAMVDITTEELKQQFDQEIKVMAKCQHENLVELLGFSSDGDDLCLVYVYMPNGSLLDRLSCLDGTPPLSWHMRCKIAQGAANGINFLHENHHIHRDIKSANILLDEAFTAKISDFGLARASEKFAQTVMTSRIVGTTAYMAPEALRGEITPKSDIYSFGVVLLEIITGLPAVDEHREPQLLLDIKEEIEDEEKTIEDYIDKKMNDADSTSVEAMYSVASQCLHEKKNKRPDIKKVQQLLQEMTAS
Method in brief: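 Compound potency as DC50 (IC50) came from four-parameter fits of percent IRAK4 degradation. IRAK4 was measured by HTRF (665/620 nm) in lysates of Karpas299 cells seeded at 0.2 million per well. Cells had been treated with compound dilutions for 5 or 24 h.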

[2] = molecular target: T1, IRAK4; assay: IRAK4 Degradation Assay with Human Serum (Karpas299, HTRF/TR-FRET); assay type: cell-based; details: Karpas-299 in human serum, 24 hrs treatment; for DC50: read-out: IRAK4 degradtion with human serum assay DC50; for Dmax: read-out: IRAK4 degradtion with human serum assay Dmax (%)
Experimental: IRAK4 degradation was measured using a TR-FRET-based method (Degorce, François, et al. Current chemical genomics. 2009, 3: 22). Karpas299 resuspended in Human serum AB (GEMINI, 100-512) were seeded into 96-well plates at the density of 0.2 million cells per well and then treated with a series dilution of compounds. After 24 hrs treatment, cells were pelleted via centrifugation and washed with PBS, add 40 μL lysis buffer (Cisbio) to each well after removal of the supernatant. Plates were then incubated at room temperature with shaking for 30 minutes. A total of 16 μL of cell lysates from each well of a 96-well plate was transferred to a 384-well white assay plate. IRAK4 level was quantitated using the HTRF kit as described by the manufacturer manual (Cisbio). FRET signals were measured using a PHERAstar FSX reader (BMG Labtech).
After treatment, add HTRF lysis buffer to each well; seal the plate and incubate 1 hour at room temperature on a plate shaker; Once the cells are lysed, 16 μL of cell lysate are transferred to a PE 384-well HTRF detection plate; 4 μL of pre-mixed HTRF antibodies are added to each well; Cover the plate with a plate sealer, spin 1000 rpm for 1 min, Incubate overnight at room temperature; Read on BMG PheraStar with HTRF protocol (337 nm-665 nm-620 nm).
The inhibition (degradation) percentage of the compound was calculated by the following equation: […]
The IC50 (DC50) value of a compound can be obtained by fitting the following equation
Wherein, X and Y are known values, and IC50, Hillslope, Top and Bottom are the parameters obtained by fitting with software. Y is the inhibition percentage (calculated from the equation), X is the concentration of the compound; IC50 is the concentration of the compound when the […] is reached. The smaller the IC50 value is, the stronger the inhibitory ability of the compound is. Vice versa, the higher the IC50 value is, the weaker the ability the inhibitory ability of the compound is; Hillslope represents the slope of the fitted curve, generally around 1 *; Bottom represents the minimum value of the curve obtained by data fitting, which is generally 0%±20%; Top represents the maximum value of the curve obtained by data fitting, which is generally 100%±20%. The experimental data were fitted by calculating and analyzing with Dotmatics data analysis software.

Row | Structure (SMILES) | Dmax [1] [%] | DC50 [1] [nM] | DC50 [2] [nM] | Dmax [2] [%]
1 | CC(C)(O)c1cc2nn([C@H]3CC[C@H](N4CCN(C5CCN(c6ccc7c(c6)CN(C6CCC(=O)NC6=O)C7=O)CC5)CC4)CC3)cc2cc1NC(=O)c1ccc2cc(C#N)cnn12 (some centres unmarked) [Example 417, 3-cyano-N-(2-((1r,4r)-4-(4-(1-(2-(2,6-dioxopiperidin-3-yl)-1-oxoisoindolin-5-yl)piperidin-4-yl)piperazin-1-yl)cyclohexyl)-6-(2-hydroxypropan-2-yl)-2H-indazol-5-yl)pyrrolo[1,2-b]pyridazine-7-carboxamide] | 95 | 0.9 | 4.5 | 95
2 | CC(C)(O)c1cc2nn(C34CC(N5CCN(C(=O)C6CN(c7cc(F)c([C@H]8CCC(=O)NC8=O)c(F)c7)C6)CC5)(C3)C4)cc2cc1NC(=O)c1cccc(C(F)(F)F)n1 [Example 153, (R)—N-(2-(3-(4-(1-(4-(2,6-dioxopiperidin-3-yl)-3,5-difluorophenyl)azetidine-3-carbonyl)piperazin-1-yl)bicyclo[1.1.1]pentan-1-yl)-6-(2-hydroxypropan-2-yl)-2H-indazol-5-yl)-6-(trifluoromethyl)picolinamide] | 97 | 1.6 | 50 | 94
3 | CC(C)(O)c1cc2nn([C@H]3CC[C@H](CN4CCN(C5CCN(c6ccc7c(c6)C(=O)N(C6CCC(=O)NC6=O)C7=O)CC5)CC4)CC3)cc2cc1NC(=O)c1ccc2cc(C#N)cnn12 (some centres unmarked) [Example 436, 3-cyano-N-(2-((1r,4r)-4-((4-(1-(2-(2,6-dioxopiperidin-3-yl)-1,3-dioxoisoindolin-5-yl)piperidin-4-yl)piperazin-1-yl)methyl)cyclohexyl)-6-(2-hydroxypropan-2-yl)-2H-indazol-5-yl)pyrrolo[1,2-b]pyridazine-7-carboxamide] | 96 | 10.8 | 14 | 85
4 | CC(C)(O)c1cc2nn([C@H]3CC[C@H](N4CCN(C[C@H]5C[C@@H](c6cc(F)c([C@H]7CCC(=O)NC7=O)c(F)c6)C5)CC4)CC3)cc2cc1NC(=O)c1ccc2cc(C#N)cnn12 [Example 383, 3-cyano-N-(2-((1R,4r)-4-(4-(((1S,3S)-3-(4-((R)-2,6-dioxopiperidin-3-yl)-3,5-difluorophenyl)cyclobutyl)methyl)piperazin-1-yl)cyclohexyl)-6-(2-hydroxypropan-2-yl)-2H-indazol-5-yl)pyrrolo[1,2-b]pyridazine-7-carboxamide] | 94 | 1.6 | 5.8 | 93
5 | COC[C@H]1CN(C(=O)C2CN(c3cc(F)c([C@H]4CCC(=O)NC4=O)c(F)c3)C2)CCN1[C@H]1CC[C@H](n2cc3cc(NC(=O)c4ccc5cc(C#N)cnn45)c(C(C)(C)O)cc3n2)CC1 [Example 184, 3-cyano-N-(2-((1R,4r)-4-((R)-4-(1-(4-((R)-2,6-dioxopiperidin-3-yl)-3,5-difluorophenyl)azetidine-3-carbonyl)-2-(methoxymethyl)piperazin-1-yl)cyclohexyl)-6-(2-hydroxypropan-2-yl)-2H-indazol-5-yl)pyrrolo[1,2-b]pyridazine-7-carboxamide] | 96 | 0.7 | 126 | 97
6 | COC[C@H]1CN([C@H]2CC[C@H](n3cc4cc(NC(=O)c5ccc6cc(C#N)cnn56)c(C(C)(C)O)cc4n3)CC2)CCN1C(=O)[C@@H]1CCN(c2cc(F)c(N3CCC(=O)NC3=O)c(F)c2)C1 [Example 316, 3-cyano-N-(2-((1R,4r)-4-((R)-4-((R)-1-(4-(2,4-dioxotetrahydropyrimidin-1(2H)-yl)-3,5-difluorophenyl)pyrrolidine-3-carbonyl)-3-(methoxymethyl)piperazin-1-yl)cyclohexyl)-6-(2-hydroxypropan-2-yl)-2H-indazol-5-yl)pyrrolo[1,2-b]pyridazine-7-carboxamide] | 97 | 1.6 | 35 | 95
7 | C[C@H]1CN([C@H]2CC[C@H](n3cc4cc(NC(=O)c5ccc6cc(C#N)cnn56)c(C(C)(C)O)cc4n3)CC2)CCN1C(=O)C1CN(c2cc(F)c(N3CCC(=O)NC3=O)c(F)c2)C1 [Example 312, 3-cyano-N-(2-((1S,4r)-4-((S)-4-(1-(4-(2,4-dioxotetrahydropyrimidin-1(2H)-yl)-3,5-difluorophenyl)azetidine-3-carbonyl)-3-methylpiperazin-1-yl)cyclohexyl)-6-(2-hydroxypropan-2-yl)-2H-indazol-5-yl)pyrrolo[1,2-b]pyridazine-7-carboxamide] | 97 | 2.4 | 34 | 99
8 | CC(C)(O)c1cc2nn([C@H]3CC[C@H](N4CCN(C5CCN(c6cc(F)c([C@H]7CCC(=O)NC7=O)c(F)c6)CC5)C[C@@H]4CO)CC3)cc2cc1NC(=O)c1ccc2cc(C#N)cnn12 [Example 399, 3-cyano-N-(2-((1R,4r)-4-((R)-4-(1-(4-((R)-2,6-dioxopiperidin-3-yl)-3,5-difluorophenyl)piperidin-4-yl)-2-(hydroxymethyl)piperazin-1-yl)cyclohexyl)-6-(2-hydroxypropan-2-yl)-2H-indazol-5-yl)pyrrolo[1,2-b]pyridazine-7-carboxamide] | 96 | 0.5 | 11 | 99
9 | Cn1c(=O)n(C2CCC(=O)NC2=O)c2cccc(CCCN3CCN([C@H]4CC[C@H](n5cc6cc(NC(=O)c7ccc8cc(C#N)cnn78)c(C(C)(C)O)cc6n5)CC4)CC3)c21 (some centres unmarked) [Example 348, 3-cyano-N-(2-((1r,4r)-4-(4-(3-(1-(2,6-dioxopiperidin-3-yl)-3-methyl-2-oxo-2,3-dihydro-1H-benzo[d]imidazol-4-yl)propyl)piperazin-1-yl)cyclohexyl)-6-(2-hydroxypropan-2-yl)-2H-indazol-5-yl)pyrrolo[1,2-b]pyridazine-7-carboxamide] | 94 | 0.4 | 6.6 | 95
10 | Cc1cc(N2CCC(N3CCN([C@H]4CC[C@H](n5cc6cc(NC(=O)c7ccc8cc(C#N)cnn78)c(C(C)(C)O)cc6n5)CC4)CC3)CC2)cc(C)c1[C@H]1CCC(=O)NC1=O [Example 289, 3-cyano-N-(2-((1r,4r)-4-(4-(1-(4-((R)-2,6-dioxopiperidin-3-yl)-3,5-dimethylphenyl)piperidin-4-yl)piperazin-1-yl)cyclohexyl)-6-(2-hydroxypropan-2-yl)-2H-indazol-5-yl)pyrrolo[1,2-b]pyridazine-7-carboxamide] | 98 | 1.3 | 19 | 98
11 | CC(C)(O)c1cc2nn([C@H]3CC[C@H](N4CCN(C[C@@H]5CCN(c6cc(F)c([C@H]7CCC(=O)NC7=O)c(F)c6)C5)CC4)CC3)cc2cc1NC(=O)c1ccc2cc(C#N)cnn12 [Example 392, 3-cyano-N-(2-((1S,4r)-4-(4-(((S)-1-(4-((R)-2,6-dioxopiperidin-3-yl)-3,5-difluorophenyl)pyrrolidin-3-yl)methyl)piperazin-1-yl)cyclohexyl)-6-(2-hydroxypropan-2-yl)-2H-indazol-5-yl)pyrrolo[1,2-b]pyridazine-7-carboxamide] | 97 | 0.9 | 11 | 98
